The values below come from ChEMBL document CHEMBL3507680, “University of Dundee, Gates Library screen for HepG2 cell viability”.

The data set is described as follows: Human HepG2 cell viability assay in 384 well format. Format: toxicity, cell-based. Details: dose 125 nL, time 70.5 hour; cytotoxicity at 70.5 h: concentration not given beside the values. As to conditions: HepG2 cells, read-out: Inhibition.
For `N#Cc1cccc(C(=O)N2CCC3(CCC(=O)N(C4CC4)C3)CC2)c1`, the cytotoxicity at 70.5 h came to 6.81%.
The figure for `COc1ccccc1OCC(=O)NCc1ncc(C)c(OC)c1C` is 11.5%; for `COCC1CN(CC2CC2)Cc2nn(CC3CC3)cc21` (configuration not stated) it is 12.3%.
Under `Cc1ccc(CNC(=O)CN2CCN(CC(O)C3CC3)CC2)cc1` (configuration not stated) stands -8.6%.
The figure for `NC[C@H]1CC[C@H](C(NC(=O)c2ccccc2)c2ccccn2)CC1` (some centres not stated) is 11.1%.
In the case of `CC(c1cccc(S(N)(=O)=O)c1)N(C)CCCOc1ccccc1` (configuration not stated), the cytotoxicity at 70.5 h is -4.57%.
For `Cc1ccc2nnc(C(=O)NCCCn3cccn3)nc2c1`, the cytotoxicity at 70.5 h came out at 6.08%.
The figure for `O=C(c1cnccn1)N1C[C@@H]2CCN(c3cccnc3)C[C@@H]2C1` is -9.4%; for `Cc1cc(N2CC(c3n[nH]c4nccnc34)C2)ncn1` it is -9.37%.
Under `NCC1[C@H]2CN(CCc3ccccc3)C[C@@H]12` (some centres not stated) stands 43.3%; under `CN1C[C@@H](C(=O)NC2CC2)[C@@]2(COc3ccc(F)cc3C2=O)C1`, 12.2%; under `CC(NC(=O)NC1CCN(Cc2ccccn2)CC1)c1ccco1` (configuration not stated), -1.3%.
For the compound `O=C(Cn1nc2ccccc2n1)N1CCCC(O)(CO)C1` (configuration not stated), the cytotoxicity at 70.5 h was determined as 6.64%.
The figure for `CC(=O)c1cc(Br)cc(F)c1OCC(=O)NC(C)C` is -4.15%; for `CC(NC(=O)CN(C)C(C)C)c1ccc(Oc2cccnc2)c(F)c1` (configuration not stated) it is -4.91%.
For the compound `Cc1cc(C)n(CC2CCCCN2C(=O)c2ccc3c(c2)OCO3)n1` (configuration not stated), the cytotoxicity at 70.5 h was -2.07%.
Under `CC(C)C(C(=O)N1CCCN(c2cccnn2)CC1)n1cncn1` (configuration not stated) stands 4.13%; under `CO[C@H]1CCN(c2ccc(C)nn2)[C@H]1Cc1cnn(C)c1`, 5.26%.
Under `OCC1(CCOc2ccccc2)CCN(c2ccc(Cl)cn2)CC1` stands -7.7%.
The figure for `Cc1nc(C)n(CC2CCCN(CCOc3cccc(F)c3)C2)n1` (configuration not stated) is 0.903%; for `COc1ccccc1CN1CC[C@H](c2nnc(-c3cncn3C)o2)C1` it is -1.04%; for `COc1cccc(CN2CCCCCC2c2cccs2)c1OC` (configuration not stated) it is -10.1%.
With `COC(=O)c1ccc(N2CCN(Cc3csc(C)n3)CC2)nn1`, the cytotoxicity at 70.5 h was -14.7%.
The figure for `Cn1nc2c(c1NC(=O)c1ccc(Cl)s1)CCC2` is -8.38%; for `O=C(N[C@@H]1C[C@H]2CC[C@@H]1C2)C1(Oc2ccc(Cl)cc2)CCNCC1` it is -2.25%.
Under `CCOCC1CN(Cc2ccoc2)Cc2nn(CC3CC3)cc21` (configuration not stated) stands 5.44%; under `Cc1ccc(C(=O)NCCCN(C(C)C)S(C)(=O)=O)c(=O)[nH]1`, -5.61%; under `CC(C)N(CC(N)=O)C(=O)c1cc(F)ccc1N1CCN(C)CC1`, -5.36%.
Regarding `c1cnc(-c2nc(CN3CCn4c(nnc4C4CC4)C3)cs2)nc1`, the cytotoxicity at 70.5 h is -9.61%.
`Cc1cc(Cl)c(C)c(S(=O)(=O)N2CCN(Cc3ccncc3)CC2)c1Cl`: the cytotoxicity at 70.5 h was -25.9%.
Consider `CC(=O)N1CCO[C@@H]2CN(S(=O)(=O)c3ccc(F)cc3)CC[C@@H]2C1`, for which the cytotoxicity at 70.5 h is -6.92%.
With `CN(Cc1cscn1)C1CCN(C(=O)OC(C)(C)C)CC1`, the cytotoxicity at 70.5 h came out at 29.5%.
Under `CC(C)CC(=O)N1Cc2ccccc2CC1C(=O)Nc1nncs1` (configuration not stated) stands 1.18%.
The figure for `COC(=O)CCCN(C)C(=O)c1cc(F)cc2[nH]cnc12` is 23.5%; for `O=C(NCCc1c[nH]cn1)C1CCCN(C2CCOCC2)C1` (configuration not stated) it is -5.69%.
Under `Cc1nc(CN(Cc2cccs2)C2CCS(=O)(=O)C2)oc1C` (configuration not stated) stands -16%; under `Cc1cc(NC(=O)C(C)Nc2cccc(COCc3ccco3)c2)on1` (configuration not stated), -20.2%.
With `O=C(c1ccon1)N1CCc2ncnc(NCc3cccnc3)c2CC1`, the cytotoxicity at 70.5 h is -5.39%.
Turning to `CC(C)(C)S(=O)(=O)c1ccc(N2CCC(n3cccn3)CC2)cn1`, the cytotoxicity at 70.5 h turned out to be 6.49%.
The figure for `Cc1ccc(S(=O)(=O)N2CCC3(CC(C(=O)NCC4CC4)=NO3)C2)cc1` (configuration not stated) is -8.09%; for `CSCCC(=O)NCc1cc2n(n1)CCCN(C1CCCCC1)C2` it is 34.5%; for `CN(C)C(=O)COC1COC2(CCN(S(C)(=O)=O)CC2)C1` (configuration not stated) it is -6.01%.
Under `COCCNC(=O)C1CN(Cc2csc(C)n2)Cc2ccnn2C1` (configuration not stated) stands -8.82%; under `O=C(c1cccnc1N1CCOC(c2ccc(F)cc2)C1)N1CCCC1` (configuration not stated), -14.7%.
Consider `Cn1cccc1C(=O)NC(C)(C(N)=O)c1cccc(C(F)(F)F)c1` (configuration not stated), for which the cytotoxicity at 70.5 h was -55.1%.
The figure for `COCCN(C)C[C@@H]1CN(C(=O)c2ccoc2)C[C@@H]1CO` is -7.32%.
The figure for `Cc1ccc(C(=O)N2CC(C(N)=O)O[C@H](C)C2)c(C)c1` (some centres not stated) is 1.19%.
The figure for `NC(=O)C1CCN(c2nc3nccc(-c4ccccn4)c3c(=O)[nH]2)CC1` is -3.55%.
On to `Cc1cc(N2CCC(C(=O)NC3CC3)CC2)nc(-c2ccncc2)n1`, for which the cytotoxicity at 70.5 h was -7.6%.
With `CC(C)N(C)[C@@H]1CCN(Cc2ccoc2)[C@H]1Cc1ccccc1`, the cytotoxicity at 70.5 h was -1.21%.
As for `Cn1cc(C(=O)Nc2cccc(Oc3ccncc3)c2)ccc1=O`, the cytotoxicity at 70.5 h is -4.83%.
Turning to `CC(=O)N1[C@H](Cn2cncn2)C[C@@H]2CN(c3ncc(F)cn3)CC[C@@H]21`, the cytotoxicity at 70.5 h is -0.528%.
Under `Cc1cccc(CN2CCC3(CCCN(C(=O)NC(C)C)C3)C2=O)n1` (configuration not stated) stands -5.48%.
With `Cc1noc(C)c1C(=O)NCCc1cccs1`, the cytotoxicity at 70.5 h was 0.104%.
`Cc1ccc(C2CN(C(=O)NCc3nnc4ccccn34)CCO2)o1` (configuration not stated): the cytotoxicity at 70.5 h is -10.6%.
For `CCc1nnsc1C(=O)N(C)Cc1nnc2n1CCC2`, the cytotoxicity at 70.5 h was found to be 5.35%.
Under `COCCS(=O)(=O)Nc1ccc(-n2nccc2C(F)(F)F)cc1` stands 18.2%; under `NC(=O)Nc1cccc(Oc2ccccn2)c1`, -4.42%.
Under `Cc1csc(N2CCN(C(=O)Cc3ccc(C)s3)CC2)n1` stands 3.83%; under `O=C(Cn1cccnc1=O)NCC1Cc2ccccc2O1` (configuration not stated), -9.82%; under `COc1cc(OC)cc(-c2cccc3c2OC(CN)C3)c1` (configuration not stated), 24.7%.
Consider `CC(NC(=O)NCCCN(C)S(C)(=O)=O)c1cccc(Cl)c1` (configuration not stated), for which the cytotoxicity at 70.5 h was -7.23%.
As for `CC(c1ncc(C(C)(C)C)o1)N1CCN(Cc2ccco2)CC1` (configuration not stated), the cytotoxicity at 70.5 h was -5.45%.
The figure for `COc1cc(C2(C(=O)NC3CCC4(CC3)OCCO4)CC2)ccc1C` is -4.1%; for `O=C(CCn1ccc2cc(Br)ccc21)NCc1ccc(C(=O)O)cc1` it is -5.77%; for `Cc1cc(C(=O)N[C@H](C)c2onc(C)c2C(=O)O)c(C)o1` it is -4.02%.
Regarding `Cc1cc(-n2cncn2)ccc1C(=O)Nc1ccc(N2CCCC2)cn1`, the cytotoxicity at 70.5 h was -1.24%.
For the compound `CNC(=O)[C@H]1C[C@@H]2CN(C(=O)c3ccncc3F)C[C@@H]2N1C`, the cytotoxicity at 70.5 h is -16.9%.
Consider `COCCOc1ccc(NC(=O)N2CCCC2c2ccsc2)cn1` (configuration not stated), for which the cytotoxicity at 70.5 h is -5.25%.
Under `CCn1cc(C(=O)N(C)[C@@H]2CC[C@@H](N3CCCC3)[C@@H]2O)c(C)n1` stands -5.26%.
Under `CCc1nnc2n1CCN(C(=O)c1cnc(-c3cccs3)s1)C2` stands -7.22%; under `COCCN(C)C[C@@H]1CN(C(=O)c2c(F)ccc(OC)c2F)C[C@@H]1CO`, 47.7%; under `O=c1[nH]c(CN2CCCC(Cn3cncn3)C2)nc2ccccc12` (configuration not stated), -4.42%.
As to `O=C(Nc1nc[nH]n1)c1cc(-c2ccc(F)cc2)n[nH]1`, the cytotoxicity at 70.5 h was -14.4%.
Under `CC(C)C1CCCN1C(=O)Nc1ccc(=O)n(C)c1` (configuration not stated) stands 15%; under `O=C(NCC(O)(c1ccco1)C1CC1)c1c(F)cccc1Cl` (configuration not stated), -0.808%.
The figure for `O=C(Cc1cccc(O)c1)NC1CCN(c2cccc(Cl)c2)C1` (configuration not stated) is -3.87%; for `c1cnc(-c2cnc(N3CCSCC3)nc2C2CC2)cn1` it is -15.9%.
The figure for `CCc1ccc(C2CC(=O)Nc3c2c(=O)n(C)c2ncnn32)cc1` (configuration not stated) is -2.98%; for `CCN1CCN(C2CCN(Cc3noc(C)n3)CC2)C1=O` it is 28.4%.
In the case of `O=C(NCc1cnc2n1CCN(c1ncc(F)cn1)CC2)C1CCC1`, the cytotoxicity at 70.5 h was -9.1%.
Under `c1cnc(-c2nc(CN3CCCC3Cn3cncn3)cs2)nc1` (configuration not stated) stands -5.35%; under `CC(=O)c1ccc(CN2C[C@@H](CN3CCC(O)CC3)[C@@H](CO)C2)cc1`, -2.46%.
Under `O=C(Nc1nncs1)N(Cc1cccc(O)c1)C1CC1` stands -4.79%; under `CNC(=O)COC1COC2(CCN(Cc3cccnc3OC)CC2)C1` (configuration not stated), -8.67%.
The figure for `CCCNC(=O)Nc1cccc2c1CCN(S(C)(=O)=O)C2` is -1.5%; for `O=C(CCc1nc2ccccc2[nH]1)NC1CCOC2(CCOCC2)C1` (configuration not stated) it is 20.1%; for `CCC(=O)Nc1ccc(C(C)NC(=O)COCCOC)cc1` (configuration not stated) it is 3.18%.
On to `Cc1nn(C)c(C)c1C1CCCN1Cc1nc(-c2ccccn2)no1` (configuration not stated), for which the cytotoxicity at 70.5 h was -5.05%.
The figure for `CC(=O)C(C)CC(=O)N(Cc1cccc(C)c1)C(C)C` (configuration not stated) is -1.29%; for `Cc1noc(C)c1CN(C)C(=O)NC1CCCN(S(C)(=O)=O)C1` (configuration not stated) it is 0.729%.
As for `CN(C)S(=O)(=O)N1C[C@@H](Oc2ccccn2)[C@H]2OCCC[C@H]21`, the cytotoxicity at 70.5 h was -7.76%.
The figure for `COc1ccc2c(c1)OCC(Cc1cnc(N)c(C)c1)C2` (configuration not stated) is 1.49%; for `Cc1n[nH]cc1CNC(C)c1cccc(N2CCCC2=O)c1` (configuration not stated) it is 14.3%; for `CC(C)NC(=O)[C@@H]1C[C@@H](N)CN1C(=O)CCSCc1ccc(F)cc1` it is -3.93%.
As for `CNC(=O)[C@@H]1[C@H]2CN(Cc3ccoc3)CCN2C[C@H]1c1ccccc1`, the cytotoxicity at 70.5 h is -0.196%.
Under `CCn1ccnc1CN1CCN(C(C)C)CC1C` (configuration not stated) stands -3.75%.
